# Measurements published in article PMC7587356, “High-Throughput Screening for Inhibitors of the SARS-CoV-2 Protease Using a FRET-Biosensor” (Molecules, 2020).
# Where a name gives a salt, the structure may show the parent alone. Read-outs that look alike come from different tables or passages of the source.
# Target: SARS-CoV-2 3CLpro (Severe acute respiratory syndrome coronavirus 2, UniProt P0DTD1)
# Assay: biochemical
# Assay type: biochemical
# Parameters: Replicate_1 / Replicate_2 / mean / mean (LOPAC_screen_w_protease): unit not given here
# Details: for inhibition at 5 µM: 4 h
# [1] = sheet LOPAC_screen_w_protease, primary screen of LOPAC1280 at 5 µM with protease, mean of the two replicates, read-out: mean
# [2] = sheet LOPAC_screen_w_protease, primary screen of LOPAC1280 at 5 µM with protease, replicate 1, read-out: Replicate_1
# [3] = sheet LOPAC_screen_w_protease, primary screen of LOPAC1280 at 5 µM with protease, replicate 2, read-out: Replicate_2
# [4] = sheet LOPAC_screen_w_protease, primary screen with protease, 5 µM, mean of two replicates
# [5] = sheet LOPAC_screen_w_protease, primary screen with protease, 5 µM, replicate 1
# [6] = sheet LOPAC_screen_w_protease, primary screen with protease, 5 µM, replicate 2
# [7] = sheet LOPAC_screen_w_protease, LOPAC1280 primary screen at 5 µM, with protease, mean of the two replicates
# [8] = sheet LOPAC_screen_w_protease, LOPAC1280 primary screen at 5 µM, with protease, replicate 1
# [9] = sheet LOPAC_screen_w_protease, LOPAC1280 primary screen at 5 µM, with protease, replicate 2
# [10] = sheet LOPAC_screen_w_protease, primary screen with protease, mean of two replicates
# [11] = sheet LOPAC_screen_w_protease, primary screen with protease, replicate 1
# [12] = sheet LOPAC_screen_w_protease, primary screen with protease, replicate 2
# [13] = sheet LOPAC_screen_w_protease, primary screen with protease, compound at 5 µM, mean of two replicates, read-out: mean
# [14] = sheet LOPAC_screen_w_protease, primary screen with protease, compound at 5 µM, replicate 1, read-out: Replicate_1
# [15] = sheet LOPAC_screen_w_protease, primary screen with protease, compound at 5 µM, replicate 2, read-out: Replicate_2
# [16] = sheet LOPAC_screen_w_protease, primary screen with protease, compound at 5 µM, mean of two replicates
# [17] = sheet LOPAC_screen_w_protease, primary screen with protease, compound at 5 µM, replicate 1
# [18] = sheet LOPAC_screen_w_protease, primary screen with protease, compound at 5 µM, replicate 2
molecule,measurement,setting,value
COc1cc(C(=O)OCCCN2CCCN(CCCOC(=O)c3cc(OC)c(OC)c(OC)c3)CC2)cc(OC)c1OC [Dilazep hydrochloride],inhibition at 5 µM,[1],3.29%
same,inhibition at 5 µM,[2],2.23%
same,inhibition at 5 µM,[3],4.35%
CC(=O)OC(C)C[N+](C)(C)C.[Cl-] (stereo not drawn) [Acetyl-beta-methylcholine chloride],mean,[4],0.2718
same,Replicate_1,[5],1.198
same,Replicate_2,[6],-0.6541
R(-)-SCH-12679 maleate,mean,[7],0.5011
same,Replicate_1,[8],0.9263
same,Replicate_2,[9],0.07597
CCOC(=O)N1CCC(=C2c3ccc(Cl)cc3CCc3cccnc32)CC1 [Loratadine],inhibition at 5 µM,"sheet LOPAC_screen_w_protease, LOPAC1280 primary screen at 5 µM, with protease, mean of the two replicates, read-out: mean",0.729%
same,inhibition at 5 µM,"sheet LOPAC_screen_w_protease, LOPAC1280 primary screen at 5 µM, with protease, replicate 1, read-out: Replicate_1",-0.189%
same,inhibition at 5 µM,"sheet LOPAC_screen_w_protease, LOPAC1280 primary screen at 5 µM, with protease, replicate 2, read-out: Replicate_2",1.65%
"CC(=O)[C@H]1CC[C@H]2[C@@H]3CC[C@H]4C[C@H](O)CC[C@]4(C)[C@H]3C(=O)C[C@]12C [5alpha-Pregnan-3alpha-ol-11,20-dione]",mean,[10],2.341
same,Replicate_1,[11],0.8983
same,Replicate_2,[12],3.784
COc1ccc2c(c1)c(CC(=O)O)c(C)n2Cc1ccc(F)cc1,mean,[10],2.348
same,Replicate_1,[11],3.38
same,Replicate_2,[12],1.3165
CNCC(O)c1ccc(O)c(O)c1.Cl (racemic) [(±)-Epinephrine hydrochloride],Replicate_1,,3.211
same,Replicate_2,,1.4095
same,mean,,2.31
NC(=O)CN1CC(O)CC1=O (stereo not drawn) [Oxiracetam],inhibition at 5 µM,[1],3.68%
same,inhibition at 5 µM,[2],3.64%
same,inhibition at 5 µM,[3],3.71%
COC(=O)C1=CCCN(C)C1 [Arecoline hydrobromide],inhibition at 5 µM,"LOPAC1280 primary screen with protease, 5 µM compound, replicate 1, read-out: Replicate_1 (LOPAC_screen_w_protease)",1.64%
same,inhibition at 5 µM,"LOPAC1280 primary screen with protease, 5 µM compound, replicate 2, read-out: Replicate_2 (LOPAC_screen_w_protease)",1.16%
same,mean (LOPAC_screen_w_protease),"LOPAC1280 primary screen with protease, 5 µM compound, mean of two replicates",1.398
NC(N)=Nc1ccc2[nH]c3c(c2c1)C[C@@]1(O)[C@H]2Cc4ccc(O)c5c4[C@@]1(CCN2CC1CC1)[C@H]3O5.O=C(O)C(F)(F)F.O=C(O)C(F)(F)F,mean,"sheet LOPAC_screen_w_protease, LOPAC1280 primary screen with protease, 5 µM compound, mean of the two replicates",5.687
same,Replicate_1,"sheet LOPAC_screen_w_protease, LOPAC1280 primary screen with protease, 5 µM compound, replicate 1",7.859
same,Replicate_2,"sheet LOPAC_screen_w_protease, LOPAC1280 primary screen with protease, 5 µM compound, replicate 2",3.515
O=[N+]([O-])c1cccc2cn[nH]c12 [7-Nitroindazole],inhibition at 5 µM,[13],3.04%
same,inhibition at 5 µM,[14],2.19%
same,inhibition at 5 µM,[15],3.89%
COc1cc(/C=C(\C#N)C(=O)c2ccc(O)c(O)c2)cc(I)c1O [I-OMe-Tyrphostin AG 538],mean,[16],2.606
same,Replicate_1,[17],2.231
same,Replicate_2,[18],2.982
O=C1CCc2cc(OCCCCc3nnnn3C3CCCCC3)ccc2N1 [Cilostazol],inhibition at 5 µM,"sheet LOPAC_screen_w_protease, primary screen with protease, mean of two replicates, read-out: mean",2.16%
same,inhibition at 5 µM,"sheet LOPAC_screen_w_protease, primary screen with protease, replicate 1, read-out: Replicate_1",1.9%
same,inhibition at 5 µM,"sheet LOPAC_screen_w_protease, primary screen with protease, replicate 2, read-out: Replicate_2",2.42%
OC(CN1CCC(Cc2ccc(F)cc2)CC1)c1ccc(Cl)cc1 (stereo not drawn) [Eliprodil],inhibition at 5 µM,[13],2.62%
same,inhibition at 5 µM,[14],2.73%
same,inhibition at 5 µM,[15],2.52%
Cl.NCCc1ccc(S(=O)(=O)F)cc1,mean,[7],0.6027
same,Replicate_1,[8],1.03
same,Replicate_2,[9],0.1751
CC1=NS(=O)(=O)c2cc(Cl)ccc2N1 [Diazoxide],inhibition at 5 µM,[1],3.37%
same,inhibition at 5 µM,[2],4.67%
same,inhibition at 5 µM,[3],2.07%
CC(C)NNC(=O)c1ccncc1.O=P(O)(O)O [Iproniazid phosphate],mean,[16],2.591
same,Replicate_1,[17],1.295
same,Replicate_2,[18],3.887
C[C@H]1C[C@H]2[C@@H]3CCC4=CC(=O)C=C[C@]4(C)[C@@]3(Cl)[C@@H](O)C[C@]2(C)[C@@]1(O)C(=O)CO [Beclomethasone],mean,[4],-0.1197
same,Replicate_1,[5],-0.1957
same,Replicate_2,[6],-0.04382
